Test: xn = mol fraction of the nth substance listed
Conditions: 101 kPa, Liquid; for viscosity: Capillary tube (Ostwald / Ubbelohde) method; for mass density: Pycnometric method

CCCCOCCOCCO [3,6-dioxa-1-decanol] + OCCNCCO
Conditions	mass density, 293.15 K [kg/m3]	mass density, 303.15 K [kg/m3]	mass density, 313.15 K [kg/m3]	mass density, 323.15 K [kg/m3]	mass density, 333.15 K [kg/m3]	viscosity, 293.15 K [mPa·s]	viscosity, 303.15 K [mPa·s]	viscosity, 313.15 K [mPa·s]	viscosity, 323.15 K [mPa·s]	viscosity, 333.15 K [mPa·s]
x1 = 0.03299	1088.3	1081.8	1075.8	1069.4	1062.8	681.3	290.7	156.2	80.04	46.73
x1 = 0.06718	1080.7	1074.2	1068	1061.5	1054.9	550.2	231.6	122.5	66.29	38.49
x1 = 0.1026	1073.2	1066.5	1060.3	1053.6	1046.9	425.1	189.9	98.2	53.87	31.99
x1 = 0.1394	1065.8	1058.9	1052.5	1045.7	1038.8	321.3	150.1	81.15	43.18	26.71
x1 = 0.2174	1050.9	1043.7	1037.1	1029.9	1022.8	191.6	96.21	53.26	30.37	19.13
x1 = 0.3018	1036.3	1028.7	1021.9	1014.5	1007.3	114.4	59.95	34.51	20.74	13.22
x1 = 0.3933	1021.9	1014	1007	999.2	991.8	65.16	37.05	22.29	14.26	9.429
x1 = 0.4929	1007.7	999.5	992.3	984.2	976.7	38.57	22.76	14.83	9.416	6.995
x1 = 0.6019	993.8	985.2	977.9	969.6	961.9	23.75	14.92	10.02	7.041	5.178
x1 = 0.7008	982.3	973.5	966.1	957.6	949.8	15.75	10.43	7.262	5.199	3.927
x1 = 0.7558	976.4	967.5	960	951.4	943.5	12.19	8.762	6.011	4.251	3.358
x1 = 0.8059	971.2	962.2	954.7	946	938.1	10.43	7.305	5.293	3.759	3.035
x1 = 0.8537	966.4	957.3	949.7	940.9	933	8.982	6.312	4.629	3.407	2.756
x1 = 0.9031	961.6	952.4	944.8	935.9	927.9	7.858	5.501	4.032	3.028	2.463
x1 = 1	952.9	943.5	935.7	926.6	918.5	5.84	4.23	3.22	2.51	2

OCCN(CCO)CCO [triethanolamine] + CCCCOCCOCCO
Conditions	mass density, 293.15 K [kg/m3]	mass density, 303.15 K [kg/m3]	mass density, 313.15 K [kg/m3]	mass density, 323.15 K [kg/m3]	mass density, 333.15 K [kg/m3]	viscosity, 293.15 K [mPa·s]	viscosity, 303.15 K [mPa·s]	viscosity, 313.15 K [mPa·s]	viscosity, 323.15 K [mPa·s]	viscosity, 333.15 K [mPa·s]
x2 = 0	1124.3	1118.5	1112.8	1107.1	1101.5	917.6	404.7	203.9	108.3	64.2
x2 = 0.09279	1105.1	1098.9	1093.1	1087.2	1081.4	491.9	228.3	112.58	69.65	43.5
x2 = 0.1871	1086.3	1079.9	1073.9	1067.5	1061.6	269.8	126.6	67.74	44.43	28.3
x2 = 0.2841	1067.9	1061	1054.8	1048.1	1041.8	153.2	69.69	40.77	28.48	18.4
x2 = 0.3804	1050.4	1043.1	1036.7	1029.5	1022.9	85.31	41.88	25.92	17.59	12.6
x2 = 0.4787	1033.3	1025.6	1018.9	1011.4	1004.5	50.08	26.39	16.38	–	8.97
x2 = 0.5789	1016.5	1008.5	1001.6	993.7	986.6	30.52	17.51	10.81	8.79	6.52
x2 = 0.6816	999.9	991.7	984.6	976.4	969	18.81	10.74	7.41	5.83	4.71
x2 = 0.7855	983.9	975.2	967.9	959.5	951.9	12.36	8.16	–	4.35	3.54
x2 = 0.8923	968.1	959.1	951.5	942.7	934.9	8.49	6.01	–	3.39	2.67

Source: the NIST ThermoML archive (doi:10.1021/je4000372)
